Measurements as given in US20240350430A1, “GROWTH INHIBITOR OF METASTATIC HUMAN PROSTATE CANCER CELLS” (Watanabe Oyster Laboratory Co., Ltd., priority 2021, published 2024).

Assays:
DU-145 cells = assay: Cell growth of DU-145 cells (cell counting); type: cell-based, human; details: DHMBA 10 μM, one to six days
Experimental: The PC-3 and DU-145 cells (the cell number of 1×10^5/in 1 ml of a culture fluid per hole using a 24-hole plate) were cultured in a DMEM culture fluid (containing 10% of FBS, 1% of P/S, and 1% of fungizone) containing the DHMBA (1 and 10 μM) under 5% of CO2, at 37° C., for one, two, three, four, and six days. […] After the culture, 0.1 ml of 0.05% trypsin-EDTA solution obtained by dissolving the cells adhering to the bottom surface of the culture dish in PBS (Thermo Fisher Scientific, Waltham, MA, USA) not containing Ca^2+/Mg^2+ was added, incubation was performed at 37° C. for two minutes to release the adhering cells, and 0.9 ml of the DMEM culture fluid containing 10% of FBS and 1% of P/S was added to stop the reaction. The cell number in the cell suspension was counted by the method described in the item of “Measurement of Cell Number.”
(§1) After the culture of the cells, 0.1 ml of 0.05% trypsin-EDTA solution obtained by dissolving the cells adhering to the bottom surface of the culture dish in PBS (Thermo Fisher Scientific, Waltham, MA, USA) not containing Ca^2+/Mg^2+ was added, incubation was performed at 37° C. for two minutes to release the adhering cells, and 0.9 ml of the DMEM culture fluid containing 10% of FBS and 1% of P/S was added to stop the reaction. The visible cells were counted by the Olympus MTV-3 microscope using a hemocytometer (Sigma-Aldrich).
FIG. 2(C) is a diagram in which the DU-145 cells (1×10^5 cells/per well of a 24-well plate) were cultured under 5% of CO2, at 37° C., for one to six days in a DMEM culture fluid (containing 10% of FBS, 1% of P/S, and 1% of fungizone) containing the DHMBA (10 μM).
In FIGS. 2(D) and 2(E), the DU-145 cells (1×10^5 cells/per well of a 24-well plate) were cultured under 5% of CO2, at 37° C., for three (FIG. 2D) and six (FIG. 2E) days in a DMEM culture fluid (containing 10% of FBS, 1% of P/S, and 1% of fungizone) containing the DHMBA (0.01, 0.1, 1, 10, 100, and 1000 μM). After the culture, the cells adhered to the dish were removed and counted. […] 1-way ANOVA, Tukey-Kramer post-test.

PC-3 cells = assay: Cell death of sub-confluent PC-3 cells (adherent cell counting); type: cell-based, human
Experimental: The PC-3 and DU-145 cells (1×10^5/in 1 ml of a culture fluid per hole using a 24-hole plate) were cultured in a DMEM culture fluid (containing 10% of FBS, 1% of P/S, and 1% of fungizone) under 5% of CO2, at 37° C., for three days, and when the cells reached sub-confluence, the culture fluid was exchanged for the one containing the DHMBA (0.01, 0.1, 1, 10, 100, or 1000 μM), and the cells were cultured for 24 and 48 hours. After the culture, the cells adhering to the bottom surface of the dish were removed and counted. In another experiment, after the culture for three days, when the cells reached sub-confluence, the culture fluid was exchanged for a culture fluid containing the DHMBA (1 or 10 μM) and a caspase-3 inhibitor (10 μM), and the cells were counted after the culture for 48 hours. Further, after the culture for three days, when the cells reached sub-confluence, the culture fluid was exchanged for a culture fluid obtained by adding gemcitabine (0.1, 1, 10, 50 or 100 nM) or CH223191 (1, 10, and 25 μM) to a DMEM culture fluid containing the DHMBA (1 or 10 μM) or not containing the DHMBA, and the cells were counted after the culture for 48 hours.
as §1
(§2) In the drawing, the PC-3 (FIGS. 5(A) and 5(B)) and DU-145 (FIGS. 5(D) and 5(E)) cells (1×10^5/in 1 ml of a culture fluid per hole using a 24-hole plate) were cultured under 5% of CO2, at 37° C., for three days in a DMEM culture fluid (containing 10% of FBS, 1% of P/S, and 1% of fungizone), and when the cells reached sub-confluence, the culture fluid was exchanged for the one containing the DHMBA (0.01, 0.1, 1, 10, 100, or 1000 μM), and the cells were cultured for 24 and 48 hours. In the drawing, after the culture, the cells adhering to the dish were counted.
In another experiment, after the culture for three days, when the cells reached sub-confluence, for the PC-3 (FIG. 5(C)) or DU-145 (FIG. 5(F)) cells, the culture fluid was exchanged for a culture fluid containing the DHMBA (1 or 10 μM) and a caspase-3 inhibitor (10 μM), and the cells were counted after the culture for 48 hours. Further, after the culture for three days, when the cells reached sub-confluence, the culture fluid was exchanged for a culture fluid obtained by adding gemcitabine (0.1, 1, 10, 50 or 100 nM) or CH223191 (1, 10, and 25 μM) to a DMEM culture fluid containing the DHMBA (1 or 10 μM) or not containing the DHMBA, and the cells were counted after the culture for 48 hours. After the culture, the cells adhered to the dish were removed and counted. Each piece of data is shown with a mean value and a standard deviation of values obtained from eight wells of the different cultured cells. *p<0.001, comparison with the control (gray bar). 1-way ANOVA, Tukey-Kramer post-test.
as §2, with “The” for “In the drawing, the”, “PC-3” for “PC-3 (FIGS. 5(A) and 5(B)) and DU-145 (FIGS. 5(D) and 5(E))”, “gemcitabine (1,” for “DHMBA (0.01, 0.1, 1,”, “10, 50,” for “10,”, “250 nM),” for “1000 μM),”, “for” for “for 24 and”
After the culture for three days, when the cells reached sub-confluence, the culture fluid was exchanged for a culture fluid containing the DHMBA (1 or 10 μM) and gemcitabine (1, 10, or 100 nM), and the cells were counted after the culture for 48 hours. […]

## COc1c(O)cc(CO)cc1O [DHMBA, 3,5-dihydroxy-4-methoxybenzyl alcohol]
DU-145 cells
  cell growth: inhibited
PC-3 cells; DHMBA 10 μM with CH223191 1, 10, or 25 μM, 48 hours
  cell death inducing effect of DHMBA in the presence of CH223191: found not to be expressed
PC-3 cells; DHMBA 1, 10, 100, or 1000 μM, 24 and 48 hours
  cell death: significantly increased
PC-3 cells; DHMBA 1 and 10 μM, 48 hours
  cell death inducing action of DHMBA in the presence of gemcitabine 1 or 10 nM: did not occur
  cell death inducing effect of DHMBA in the coexistence of gemcitabine 100 nM: significantly enhanced
PC-3 cells; DHMBA 1 or 10 μM with caspase-3 inhibitor 10 μM, 48 hours
  increase of cell death in the presence of caspase-3 inhibitor: not caused
